# How the values were obtained:
# CDK8 = target: T1, CDK8 (Homo sapiens, UniProt P49336); assay: Kinase competition binding assay (Kd, qPCR readout), CDK8; details: in vitro binding; 11-point 3-fold dilution series; read-out: pKd (CDK8) (converted)
# T1 construct: made in house; host or cells: E. coli BL21-derived host (T7 phage display) or HEK-293 cells
# Description: (§1) Compounds 1 to 11 were tested for their in vitro binding activity against CDK8 and CDK19.
# (§2) Kinase assays: Kinase-tagged T7 phage strains were prepared in an E. coli host derived from the BL21 strain. E. coli were grown to log-phase and infected with T7 phage and incubated with shaking at 32° C. until lysis. The lysates were centrifuged and filtered to remove cell debris. The remaining kinases were produced in HEK-293 cells and subsequently tagged with DNA for qPCR detection. Streptavidin-coated magnetic beads were treated with biotinylated small molecule ligands for 30 minutes at room temperature to generate affinity resins for kinase assays. The liganded beads were blocked with excess biotin and washed with blocking buffer (SeaBlock (Pierce), 1% BSA, 0.05% Tween 20, 1 mM DTT) to remove unbound ligand and to reduce non-specific binding. Binding reactions were assembled by combining kinases, liganded affinity beads, and test compounds in 1× binding buffer (20% SeaBlock, 0.17×PBS, 0.05% Tween 20, 6 mM DTT). Test compounds were prepared as 111× stocks in 100% DMSO. Kds were determined using an 11-point 3-fold compound dilution series with three DMSO control points. All compounds for Kd measurements are distributed by acoustic transfer (non-contact dispensing) in 100% DMSO. The compounds were then diluted directly into the assays such that the final concentration of DMSO was 0.9%. All reactions performed in polypropylene 384-well plate. Each was a final volume of 0.02 ml. The assay plates were incubated at room temperature with shaking for 1 hour and the affinity beads were washed with wash buffer (1×PBS, 0.05% Tween 20). The beads were then re-suspended in elution buffer (1×PBS, 0.05% Tween 20, 0.5 μM nonbiotinylated affinity ligand) and incubated at room temperature with shaking for 30 minutes. The kinase concentration in the eluates was measured by qPCR.
# (§3) Compound handling: An 11-point 3-fold serial dilution of each test compound was prepared in 100% DMSO at 100× final test concentration and subsequently diluted to 1× in the assay (final DMSO concentration=1%). Most Kds were determined using a compound top concentration=30,000 nM. If the initial Kd determined was <0.5 nM (the lowest concentration tested), the measurement was repeated with a serial dilution starting at a lower top concentration.
# (§4) Binding constants: Binding constants (Kds) were calculated with a standard dose-response curve using the Hill equation: […]
# (§5) The Hill Slope was set to −1.
# (§6) Curves were fitted using a non-linear least square fit with the Levenberg-Marquardt algorithm.
# CDK19 = target: T2, CDK19 (Homo sapiens, UniProt Q9BWU1); assay: Kinase competition binding assay (Kd, qPCR readout), CDK19; details: in vitro binding; 11-point 3-fold dilution series; read-out: pKd (CDK19) (converted)
# T2 construct: made in house; host or cells: E. coli BL21-derived host (T7 phage display) or HEK-293 cells
# T2 sequence (Q9BWU1 whole entry): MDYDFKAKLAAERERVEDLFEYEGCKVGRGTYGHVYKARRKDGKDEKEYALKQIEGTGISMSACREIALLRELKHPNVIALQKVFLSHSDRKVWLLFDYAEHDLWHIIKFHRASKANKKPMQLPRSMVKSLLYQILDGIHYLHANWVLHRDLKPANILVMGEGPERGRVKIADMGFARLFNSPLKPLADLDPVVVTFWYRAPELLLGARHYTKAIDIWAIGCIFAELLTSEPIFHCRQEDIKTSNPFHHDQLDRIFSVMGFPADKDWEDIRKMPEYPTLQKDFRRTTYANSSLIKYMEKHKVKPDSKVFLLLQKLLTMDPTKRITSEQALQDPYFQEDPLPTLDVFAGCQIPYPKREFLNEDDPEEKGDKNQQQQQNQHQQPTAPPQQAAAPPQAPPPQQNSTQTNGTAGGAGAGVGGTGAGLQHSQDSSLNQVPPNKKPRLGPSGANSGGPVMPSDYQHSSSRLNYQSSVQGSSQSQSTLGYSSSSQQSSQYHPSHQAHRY
# Description: as §1, §2, §3, §4, §5, §6
# T1 sequence (P49336 whole entry): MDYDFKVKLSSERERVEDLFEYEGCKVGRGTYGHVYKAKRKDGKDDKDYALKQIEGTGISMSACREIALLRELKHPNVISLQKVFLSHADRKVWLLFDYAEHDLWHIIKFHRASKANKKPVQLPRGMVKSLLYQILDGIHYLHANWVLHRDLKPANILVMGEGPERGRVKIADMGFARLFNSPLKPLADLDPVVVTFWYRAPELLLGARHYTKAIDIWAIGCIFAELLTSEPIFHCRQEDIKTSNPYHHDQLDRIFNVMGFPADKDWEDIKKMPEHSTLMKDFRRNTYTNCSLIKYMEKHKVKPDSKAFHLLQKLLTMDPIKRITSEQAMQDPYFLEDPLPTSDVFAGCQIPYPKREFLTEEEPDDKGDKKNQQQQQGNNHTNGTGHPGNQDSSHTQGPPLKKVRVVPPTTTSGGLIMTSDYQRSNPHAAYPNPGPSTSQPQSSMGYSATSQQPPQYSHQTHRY
SMILES,Kd (CDK8) [nM],Kd (CDK19) [nM]
"CNC1CCN(c2snc3ccccc23)CC1 [Compound 1, 1-(benzo[c]isothiazol-3-yl)-N-methylpiperidin-4-amine]",31600,31600
"CC(=O)NC1CCN(c2snc3ccccc23)CC1 [Compound 2, N-(1-(benzo[c]isothiazol-3-yl)piperidin-4-yl)acetamide]",10000,6310
"Cn1cnc(C(=O)NC2CCN(c3snc4ccccc34)CC2)c1 [Compound 3, N-(1-(benzo[c]isothiazol-3-yl)piperidin-4-yl)-1-methyl-1H-imidazole-4-carboxamide]",398,158
"Cn1cnc(C(=O)NC2CCN(c3snc4ccc(F)cc34)CC2)c1 [Compound 4, N-(1-(5-fluorobenzo[c]isothiazol-3-yl)piperidin-4-yl)-1-methyl-1H-imidazole-4-carboxamide]",63.1,50.1
"O=C(NC1CCN(c2snc3ccccc23)CC1)c1cn(Cc2cnccn2)cn1 [Compound 5, N-(1-(benzo[c]isothiazol-3-yl)piperidin-4-yl)-1-(pyrazin-2-ylmethyl)-1H-imidazole-4-carboxamide]",200,79.4
"O=C(NC1CCN(c2snc3ccc(F)cc23)CC1)c1cn(Cc2cnccn2)cn1 [Compound 6, N-(1-(5-fluorobenzo[c]isothiazol-3-yl)piperidin-4-yl)-1-(pyrazin-2-ylmethyl)-1H-imidazole-4-carboxamide]",25.1,20
"CN(C)C(=O)Cn1cnc(C(=O)NC2CCN(c3snc4ccccc34)CC2)c1 [Compound 7, N-(1-(benzo[c]isothiazol-3-yl)piperidin-4-yl)-1-(2-(dimethylamino)-2-oxoethyl)-1H-imidazole-4-carboxamide]",631,200
"CN(C)C(=O)Cn1cnc(C(=O)NC2CCN(c3snc4ccc(F)cc34)CC2)c1 [Compound 8, 1-(2-(dimethylamino)-2-oxoethyl)-N-(1-(5-fluorobenzo[c]isothiazol-3-yl)piperidin-4-yl)-1H-imidazole-4-carboxamide]",501,316
"CN(C)CCn1cnc(C(=O)NC2CCN(c3snc4ccccc34)CC2)c1 [Compound 9, N-(1-(benzo[c]isothiazol-3-yl)piperidin-4-yl)-1-(2-(dimethylamino)ethyl)-1H-imidazole-4-carboxamide]",3980,1260
"O=C(NC1CCN(c2snc3ccccc23)CC1)c1cn(CC2COC2)cn1 [Compound 10, N-(1-(benzo[c]isothiazol-3-yl)piperidin-4-yl)-1-(oxetan-3-ylmethyl)-1H-imidazole-4-carboxamide]",316,100
"O=C(NC1CCN(c2snc3ccccc23)CC1)c1cn(Cc2ncccn2)cn1 [Compound 11, N-(1-(benzo[c]isothiazol-3-yl)piperidin-4-yl)-1-(pyrimidin-2-ylmethyl)-1H-imidazole-4-carboxamide]",501,100
